# Laboratory results taken from ChEMBL document CHEMBL5726250, “AMPK-activating heterocyclic compounds and methods for using the same” (2017).
# Biological target: 5'-AMP-activated protein kinase catalytic subunit alpha-2 (Homo sapiens, UniProt P54646)
# Experiment: Enzyme-Linked Immunosorbent Assay: Compounds were assayed for their ability to activate AMPK using an enzyme-linked immunosorbent assay. Reagents and procedures for measuring AMPK activation are well known and kits for AMPK activation assays are commercially available.
# Chain of 5'-AMP-activated protein kinase catalytic subunit alpha-2 (P54646 whole entry): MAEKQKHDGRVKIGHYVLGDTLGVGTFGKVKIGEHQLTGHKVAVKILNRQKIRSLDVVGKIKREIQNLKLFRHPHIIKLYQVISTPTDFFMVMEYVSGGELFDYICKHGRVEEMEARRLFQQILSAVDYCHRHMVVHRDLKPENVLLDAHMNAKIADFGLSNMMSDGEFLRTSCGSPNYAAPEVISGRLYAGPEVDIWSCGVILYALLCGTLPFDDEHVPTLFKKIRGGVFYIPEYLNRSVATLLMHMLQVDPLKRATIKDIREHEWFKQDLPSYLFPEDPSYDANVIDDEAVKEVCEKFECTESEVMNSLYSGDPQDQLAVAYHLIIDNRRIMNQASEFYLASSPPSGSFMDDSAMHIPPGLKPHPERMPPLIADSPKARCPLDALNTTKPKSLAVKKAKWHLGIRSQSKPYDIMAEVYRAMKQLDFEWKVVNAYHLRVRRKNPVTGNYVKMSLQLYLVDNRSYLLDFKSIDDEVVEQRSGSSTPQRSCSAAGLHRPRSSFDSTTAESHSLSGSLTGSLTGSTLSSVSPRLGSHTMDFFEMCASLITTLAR
row,SMILES,EC50 [µM]
1,O=C(Nc1ccc(-c2ccc([N+](=O)[O-])cc2)cc1)c1ccc(C(=O)N2CCN(Cc3ccc(F)cc3)CC2)cn1,> 10
2,O=C(Nc1ccccc1-c1ccccc1)c1ccc(C(=O)N2CCN(Cc3ccc(F)cc3)CC2)cn1,> 10
